This is an account of results in patent US5468469A, “Methods of using azo dyes and their derivatives” (The United States of America as represented by the …, priority 1994, dated 1995).

The target in data set [1] is T1, CD4 (Homo sapiens, UniProt P01730).
T1 construct: PBL were prepared by density gradient centrifugation; endogenous in cells; host or cells: human peripheral blood lymphocytes (PBL)
The data set can be described thus: Dose-response of inhibition of αCD4 binding in presence (RPMI 1640 with 5% serum) and absence (PBS) of serum. To be noted: RPMI 1640 with 5% serum versus PBS; FIG. 1. The method, then: (§1) For these binding assays, PBL were prepared by density gradient centrifugation, and the effect of the azo dyes on the binding of anti-CD4-FITC (Becton Dickinson, Mountain View, Calif.) was measured (Weaver et al., supra). Cells were treated with an azo dye for at least 10 minutes at room temperature, or for more than 30 minutes at 4° C., and were then contacted with FITC-labeled antibody. Binding was measured by quantitating cell bound fluorescence using flow cytometry.

The target in data set [2] is T2, HIV rgp120 binding to CD4 (Homo sapiens, UniProt P01730).
T2 construct: PBL were prepared by density gradient centrifugation; endogenous in cells; host or cells: human peripheral blood lymphocytes (PBL)
The data set can be described thus: Inhibition of HIV rgp120 binding to CD4 on PBL, detected with anti-rgp120-FITC. The settings on record: PBS, % logarithmic mean channel number of rgp120 binding detected by αrgp120-FITC. The procedure:
as §1, with “Since anti-Leu3a (αCD4) and recombinant HIV coat protein (rgp120) bind to the same site on the CD4 molecule, interference in binding of CD4 confirms interference in HIV binding to αCD4 (Weaver et al., AIDS Res. Human Retrovir., 6, 1125-1130 (1990)). For” for “For”
The ability of Direct Orange 26, Direct Red 23, Direct Red 24, and Direct Red 26 to inhibit the binding of HIV rgp120 to CD4 was determined using monoclonal anti-rgp120-FITC (Genentech, Inc., San Francisco, Calif.) to detect recombinant HIV coat protein in the binding assay described in Example 1.

For data set [3], the target named is T1, CD4. The data set can be described thus: Inhibition of binding of αCD4-FITC (anti-Leu3a) to PBL, flow cytometry. The method, then:
as §1
A general note: A flow cytometer gives signals particle by particle.

The target in data set [4] is T3, CD3 (αCD3 binding to PBL) (Homo sapiens, UniProt P07766).
T3 construct: endogenous in cells; host or cells: human peripheral blood lymphocytes (PBL)
The data set can be described thus: Specificity: binding of αCD3-FITC to PBL. To be noted: PBS, % logarithmic mean channel number of αCD3-FITC binding, read-out: % Control Binding (αCD3).

For data set [5], the target named is T4, CD8 (αCD8 binding to PBL) (Homo sapiens, UniProt P01732).
T4 construct: endogenous in cells; host or cells: human peripheral blood lymphocytes (PBL)
The data set can be described thus: Specificity: binding of αCD8-FITC to PBL. The settings on record: PBS, % logarithmic mean channel number of αCD8-FITC binding, read-out: % Control Binding (αCD8). The method, then: as §1, with “Since anti-Leu3a (αCD4) and recombinant HIV coat protein (rgp120) bind to the same site on the CD4 molecule, interference in binding of CD4 confirms interference in HIV binding to αCD4 (Weaver et al., AIDS Res. Human Retrovir., 6, 1125-1130 (1990)). For” for “For”
The specificity of the dyes was confirmed by testing their ability to interfere with the binding of two other monoclonal antibodies, αCD3 and αCD8, to PBL using the binding assay described in Example 1.

For data set [6], the system named is HIV isolate LAV-1BR. Put plainly: HIV replication in phytohemagglutinin-stimulated human PBL, intracellular p24 ELISA. The data set is classed as cell-based. The settings on record: six days culture; for pg/ml HIV p24: virus only 101,000. The text has this: The ability of the azo dyes to negatively affect HIV replication was verified after six days of culturing the HIV isolate LAV-1BR in phytohemagglutinin-stimulated human PBL. For this experiment, the amount of intracellular HIV p24 protein in cell lysates was quantitated with use of an HIV p24 enzyme linked immunosorbent assay kit (Cellular Products, Buffalo, N.Y.) as described in Anand et al., AIDS Res. Human Retrovir., 6, 679-689 (1990). This measure of p24 protein was considered an indication of HIV replication. Aurintricarboxylic acid (ATA; Sigma Chemical Co., St. Louis, Mo.) was included in this experiment as a positive control, and the solvent DMSO was utilized for further comparative purposes.

Data set [7] concerns PBL. The data set can be described thus: Viability of PBL after 72 hour culture with αTCR stimulation, propidium iodide exclusion. The data set is classed as cell-based, human. The procedure:
(§2) Cells were then washed once in PBS, and resuspended in PBS with 3 μg/ml propidium iodide. After 10 minutes incubation, the cells were analyzed by flow cytometry. Live cells were defined as those excluding propidium iodide.

Assay in data set [8]: as above
The settings on record: pbl. The data set is classed as cell-based, human. The method, then:
as §2

Setting [9] is: read-out: % Control Binding (HIV rgp120).
[10] abbreviates: 20 μM, PBS, % logarithmic mean channel number of αCD4-FITC binding.

T4 sequence (P01732 22-235): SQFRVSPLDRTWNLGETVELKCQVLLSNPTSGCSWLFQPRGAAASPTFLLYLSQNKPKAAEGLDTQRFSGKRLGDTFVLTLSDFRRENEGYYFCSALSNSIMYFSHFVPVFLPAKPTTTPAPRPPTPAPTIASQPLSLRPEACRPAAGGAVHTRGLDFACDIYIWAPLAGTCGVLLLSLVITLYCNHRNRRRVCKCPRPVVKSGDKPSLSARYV
T4 sequence (P10966 22-210 partner): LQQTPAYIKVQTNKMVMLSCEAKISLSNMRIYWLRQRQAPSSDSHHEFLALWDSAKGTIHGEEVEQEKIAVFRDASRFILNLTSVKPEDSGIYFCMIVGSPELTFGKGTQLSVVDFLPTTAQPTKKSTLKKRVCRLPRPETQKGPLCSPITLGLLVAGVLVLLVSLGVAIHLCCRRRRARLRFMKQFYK
T3 sequence (P07766 23-207): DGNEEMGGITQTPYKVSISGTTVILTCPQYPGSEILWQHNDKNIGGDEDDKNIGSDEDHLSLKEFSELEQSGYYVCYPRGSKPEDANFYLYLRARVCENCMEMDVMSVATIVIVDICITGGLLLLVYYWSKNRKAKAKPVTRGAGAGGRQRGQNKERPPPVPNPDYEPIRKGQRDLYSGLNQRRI
T3 sequence (P04234 22-171 partner): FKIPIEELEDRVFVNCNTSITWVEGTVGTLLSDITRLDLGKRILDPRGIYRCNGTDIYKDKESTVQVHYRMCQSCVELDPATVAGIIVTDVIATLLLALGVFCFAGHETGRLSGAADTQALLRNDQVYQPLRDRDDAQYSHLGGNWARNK
T3 sequence (P09693 23-182 partner): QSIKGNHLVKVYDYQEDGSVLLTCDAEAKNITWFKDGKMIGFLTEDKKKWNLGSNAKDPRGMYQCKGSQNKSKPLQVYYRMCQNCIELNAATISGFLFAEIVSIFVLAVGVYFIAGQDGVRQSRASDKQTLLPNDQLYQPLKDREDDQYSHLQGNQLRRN
T3 sequence (P20963 22-164 partner): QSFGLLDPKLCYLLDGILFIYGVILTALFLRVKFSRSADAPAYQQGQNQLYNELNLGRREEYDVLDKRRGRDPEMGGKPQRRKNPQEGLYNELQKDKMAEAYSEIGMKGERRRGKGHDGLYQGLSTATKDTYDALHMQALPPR

Turning to `O=S(=O)([O-])c1ccc2c(N=Nc3ccccc3)ccc(N=Nc3ccc(Nc4ccccc4)c4c(S(=O)(=O)[O-])cccc34)c2c1.[Na+].[Na+]` [Acid Blue 116], the “Fold more dye needed to inhibit αCD4 binding in the presence of serum” value in data set [1] is reported as “about 100 ×”.

On to `Cc1cc(-c2ccc(/N=N/c3ccc4c(S(=O)(=O)O)cc(S(=O)(=O)O)c(N)c4c3O)c(C)c2)ccc1/N=N/c1ccc2c(S(=O)(=O)O)cc(S(=O)(=O)O)c(N)c2c1O` [Evans Blue, Evans blue, reference compound], for which the remaining activity at 1 µM in data set [2] (setting [9]) was found to be 8%; in data set [3] (1 μM, PBS, % logarithmic mean channel number of αCD4-FITC binding, read-out: % Control Binding (αCD4)) it was 1%. Moreover, the “% Control Binding (αCD4)” value in data set [3] (1 μM, PBS, % logarithmic mean channel number of αCD4-FITC binding) is 1%.

For `CC(=O)Nc1ccc(N=Nc2c(S(=O)(=O)O)cc3cc(NC(=O)Nc4ccc5c(O)c(N=Nc6ccccc6)c(S(=O)(=O)O)cc5c4)ccc3c2O)cc1` [Direct Red 23], the remaining activity at 5 µM in data set [2] (5.0 μM, read-out: % Control Binding (HIV rgp120)) lay within 10 to 15%. The “Inhibition of the binding of αCD4 to CD4 (in words)” value (shortened to “Inhibition of the binding of αCD4”) in data set [3] (20 μM) is “completely inhibited”. In data set [3] (20 μM, PBS, % logarithmic mean channel number of αCD4-FITC binding, read-out: % Control Binding (αCD4)), the remaining activity at 20 µM turned out to be 0%.

For the compound `O=C(Nc1ccc2c(O)c(N=Nc3ccccc3)c(S(=O)(=O)O)cc2c1)Nc1ccc2c(O)c(N=Nc3ccccc3)c(S(=O)(=O)O)cc2c1` [Direct Orange 26], the remaining activity at 1 µM in data set [2] (setting [9]) is 26%. Also, the remaining activity at 2.5 µM in data set [2] (2.5 μM, read-out: % Control Binding (HIV rgp120)) amounted to 15%. Moreover, in data set [3] (10 μM), the “Inhibition of the binding of αCD4” value is on record as “completely inhibited”. Besides, the remaining activity at 10 µM turned out to be 0% in data set [3] (10 μM, PBS, % logarithmic mean channel number of αCD4-FITC binding, read-out: % Control Binding (αCD4)); 103% in data set [4]; 65% in data set [5]. Besides, the “Fold more dye needed to inhibit αCD4 binding in the presence of serum” value in data set [1] is “about 5 ×”. In addition, the “pg/ml HIV p24” value is 71 pg/mL in data set [6] (50 μg/ml) and 61 pg/mL in data set [6] (100 μg/ml). Moreover, the “Effect on HIV replication (in words)” value in data set [6] (50-100 μg/ml) is “strongly decrease HIV replication”. Also, the “Effect on PBL viability / lymphocyte proliferation (in words)” value in data set [7] was “only a slight negative effect”. Besides, the viability at 72 h, 400 µM in data set [8] (400 μM, untreated 78.2, read-out: % Viable Cells) was 67.5%. The viability at 72 h, 800 µM in data set [8] (800 μM, untreated 78.2, read-out: % Viable Cells) was 71.5%. Further, in data set [8] (400-800 μM, read-out: Reduction of viability), the cytotoxicity at 72 h is not above 10%.

For the compound `COc1cc(N=Nc2cc(S(=O)(=O)[O-])cc3cc(S(=O)(=O)[O-])cc(O)c23)c(C)cc1NC(=O)Nc1cc(C)c(N=Nc2cc(S(=O)(=O)[O-])cc3cc(S(=O)(=O)[O-])cc(O)c23)cc1OC.[Na+].[Na+].[Na+].[Na+]` [Direct Red 79], the “Fold more dye needed to inhibit αCD4 binding in the presence of serum” value in data set [1] is “about 100 ×”.

On to `O=C(O)C1=CC(=C(c2ccc(O)c(C(=O)O)c2)c2ccc(O)c(C(=O)O)c2)C=CC1=O` [ATA, Aurintricarboxylic acid, reference compound], for which the “pg/ml HIV p24” value in data set [6] (50 μg/ml) was determined as 1 pg/mL.

Consider `Cc1ccccc1N=Nc1ccc(N=Nc2c(O)c(S(=O)(=O)[O-])cc3cc(S(=O)(=O)[O-])ccc23)c(C)c1.[Na+].[Na+]` [Acid Red 115], for which, in data set [1], the “Fold more dye needed to inhibit αCD4 binding in the presence of serum” value is listed as “about 100 ×”.

On to `COc1ccccc1N=Nc1c(S(=O)(=O)[O-])cc2cc(NC(=O)Nc3ccc4c(O)c(N=Nc5ccc(S(=O)(=O)[O-])cc5C)c(S(=O)(=O)[O-])cc4c3)ccc2c1O.[Na+].[Na+].[Na+]` [Direct Red 24], for which, in data set [2] (5.0 μM), the “% Control Binding (HIV rgp120)” value is 10-15%. Also, in data set [3] (20 μM), the “Inhibition of the binding of αCD4” value is reported as “completely inhibited”. Also, the “% Control Binding (αCD4)” value in data set [3] (setting [10]) stood at 0%.

In the case of Direct Red 26, the “% Control Binding (HIV rgp120)” value in data set [2] (5.0 μM) is reported as 10-15%. Besides, the “Inhibition of the binding of αCD4” value in data set [3] (20 μM) is listed as “completely inhibited”. Besides, the “% Control Binding (αCD4)” value in data set [3] (setting [10]) amounted to 0%.
